Source: US20230233704A1, “HYDROGEL COMPOSITION AND ASSOCIATED METHOD OF USE” (Quthero, Inc., priority 2017, published 2023)

Key:
[1] = system: Primary neonatal human epithelial keratinocytes (HEKs); assay: BrdU proliferation assay of HEKs with soluble QHREDGS peptide; type: cell-based; conditions: soluble peptide Low 100 μM, High 650 μM; 8 h BrdU
Procedure: (§1) The effect of the QHREDGS peptide as in the soluble form was assessed on HEKs in vitro. 24- or 96-well plates were coated with 0.05 mg/mL type I collagen (BD Biosciences) in 0.02 N acetic acid overnight and then rinsed once with phosphate buffered saline (PBS) (Lonza). HEKs were seeded in complete EpiLife medium and attached for at least 2 h. 100 μM or 650 μM QHREDGS was supplemented to the EpiLife medium as Low or High dosage, respectively.
HEKs were seeded at a density of 1×10^4 cells/cm^2 in collagen-coated 96-well plates. After 4 h, media was removed and replenished with EpiLife media supplemented with 20 μM bromodeoxyuridine (BrdU) (Sigma Aldrich) in the presence or absence of QHREDGS peptide. After incubating for 8 h, proliferating HEKs were identified by BrdU staining. Briefly, HEKs were fixed with 4% paraformaldehyde (PFA), permeablized with 0.25% triton X, treated with DNase for 30 min at 37° C., and blocked with 5% bovine serum albumin (BSA). The HEKs were then incubated with a rat anti-BrdU antibody (AbD Serotec) overnight at 4° C. followed by an anti-rat TRITC-labelled secondary antibody (Jackson Immuno Research). BrdU-positive cells were counted in 5 randomly chosen fields under 20× magnification and then normalized to the total number of cells labelled by 4′,6-diamidino-2-phenylindole (DAPI) counterstaining.

HEKs [2] = assay: HEK migration on collagen coated surfaces with soluble QHREDGS peptide; type: cell-based, human; conditions: soluble peptide 100 μM or 650 μM; collagen-coated surface; 24 h
Procedure: as §1
Culture-inserts were purchased from Ibidi® and carefully placed on the chitosan-collagen films in 24-wells. HEKs were seeded in complete EpiLife medium at 0.3-0.4×10^6 cells/mL with 70-100 μL per chamber and allowed to attach for 2 h. The culture-inserts were then carefully lifted and the unattached HEKs were immediately removed by rinsing twice using warm PBS. Basal EpiLife medium was then added to the wells and the wells were imaged every 2 h for 8 h and the next day using the SpectraMax i3 plate reader. Confluent HEK monolayers were wounded (time 0) and maintained for 24 h in EpiLife basal medium with 0.12 mM Ca2+. The wounds were outlined and the area at the various time points was normalized to the initial wound size (time 0). After 24 h, HEKs were fixed with 4% paraformaldehyde.

HEKs [3] = assay: EarlyTox Cell Integrity assay after H2O2 treatment of HEKs with soluble QHREDGS peptide; type: cell-based, human; conditions: 500 μM H2O2 for 2 h; soluble peptide 100 μM / 650 μM, 2 h pre-conditioning
Procedure: (§2) HEKs were seeded at a sub-confluent density in a 96-well plate for the cell integrity assay or a 24-well plate for Western blot analysis, and serum starved overnight. The HEKs were then pretreated with soluble QHREDGS (100 μM for Low and 650 μM for High) for 2 h. The cells were then exposed to fresh EpiLife basal medium supplemented with 500 μM H2O2 in the presence or absence of QHREDGS peptide. For the cell integrity assay, the cells were stained using the EarlyTox™ Cell Integrity kit (Molecular Devices) after 2 h of H2O2 treatment. For the Western analysis, another set of wells were seeded in parallel for the Ctrl, Low and High conditions and protein samples were collected after 0, 15 min and 2 h of H2O2 treatment.
The EarlyTox™ Cell Integrity Kit (Molecular Devices, R8213) is based on two nuclear dyes: live red dye is cell permeant and marks both live and dead cells (Excitation: 622 nm/Emission: 645 nm); dead green dye is cell impermeant and stains only cells with damaged outer membranes (Excitation: 503 nm/Emission: 526 nm). […] The plate was then incubated at 37° C. for 30 min and imaged using a SpectraMax i3 plate reader (Molecular Devices). The percentage of viable cells after H2O2 treatment on chitosan-collagen films in the presence or absence of QHREDGS peptide was normalized to the viability percentage of non-treated controls on the same coating film condition.

[4] = system: Akt and MAPKp42/44 phosphorylation; assay: Western blotting of HEKs under H2O2 stress with soluble QHREDGS peptide; type: cell-based, human; conditions: 500 μM H2O2, 15 min, soluble peptide 100 μM / 650 μM
Procedure: as §2
Protein was isolated from keratinocytes in the 24-well plate after H2O2 treatment using 60-80 μL Lysis Buffer per well (10× Cell Lysis Buffer, Cell Signaling Technology; complete Mini, EDTA-free protease inhibitor cocktail tablet, Roche; in ddH2O). Proteins were separated by electrophoresis in Novex Tris-Glycine gels (Life technologies) and transferred using the iBlot (Life technologies) to a PVDF iBlot Transfer Stack (Life technologies). Membranes were probed for phospho-p44/42 MAPK (pMAPKp42/44), p44/42 MAPK (MAPKp42/44), phospho-Akt, Akt, or GAPDH as a loading control (Millipore). All primary antibodies were purchased from Cell Signaling unless stated otherwise. […]

QHREDGS [QHREDGS peptide]
percentage of proliferating HEKs (BrdU incorporation) [1]: not affected | HEK migration rate (HEKs [2]): No significant difference | percentage of viable HEKs under oxidative stress (HEKs [3]): significant dose-dependent increase | phosphorylation of Akt and MAPKp42/44 [4]: increased the phosphorylation of Akt and MAPKp42/44 and the increase was dose-dependent
